Source: patent EP2818471A1, “Nitrogen bicyclic compounds as inhibitors for Scyl1 and Grk5” (Max-Planck-Gesellschaft zur Förderung der Wissenschaften …, priority 2013, dated 2014)

Tested on: beta-TC6 cells
Test: Insulin HTRF assay, relative activity Ar normalized to sunitinib
Format: cell-based
Details: Mus musculus, normalized to positive control sunitinib (5 µM = 100%), Table 10
Summary of the method: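 Relative activity Ar was scaled between 0% and 100% controls, with sunitinib at 5 µM f.c. as reference. Insulin released by beta-TC6 cells was quantified by sandwich HTRF (Eu-cryptate/XL665 antibodies, 120 min RT). Cells had been seeded 24 or 48 h, then treated 2–4 h at 37°C in induction buffer, 0.5% DMSO.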

| Structure (SMILES) | Emax |
| --- | --- |
| COc1cccc(-c2cn3c(NC(=O)Cc4ccsc4)cnc3cn2)c1 [compound 279, N-[6-(3-methoxyphenyl)imidazo[1,2-a]pyrazin-3-yl]-2-(3-thienyl)acetamide] | 20 to 50% |
| CN(C)CCCOc1ccc(-c2cn3c(-c4ccc(N(C)C)cc4)cnc3cn2)cn1 [compound 281, 4-[6-[6-[3-(dimethylamino)propoxy]-3-pyridyl]imidazo[1,2-a]pyrazin-3-yl]-N,N-dimethyl-aniline] | 50 to 100% |
| CN(C)c1ccc(-c2cnc3cnc(-c4ccc(NCCN5CCOCC5)nc4)cn23)cc1 [compound 282, 5-[3-(4-dimethylaminophenyl)imidazo[1,2-a]pyrazin-6-yl]-N-(2-morpholinoethyl)pyridin-2-amine] | 50 to 100% |
| CN(C)c1ccc(-c2cnc3cnc(-c4ccccc4N(C)C)cn23)cc1 [compound 283, 2-[3-(4-dimethylaminophenyl)imidazo[1,2-a]pyrazin-6-yl]-N,N-dimethyl-aniline] | 20 to 50% |
| CN(C)c1ccc(-c2cnc3cnc(-c4ccc(O)cc4)cn23)cc1 [compound 284, 4-[3-(4-dimethylaminophenyl)imidazo[1,2-a]pyrazin-6-yl]phenol] | 50 to 100% |
| CN(C)CCCNC(=O)c1ccc(-c2cn3c(-c4ccc(N(C)C)cc4)cnc3cn2)cc1 [compound 285, 4-[3-(4-dimethylaminophenyl)imidazo[1,2-a]pyrazin-6-yl]-N-[3-(dimethylamino)propyl]benzamide] | 50 to 100% |
| CN(C)c1ccc(-c2cnc3cnc(-c4cccc(C(=O)NCCO)c4)cn23)cc1 [compound 286, 3-[3-(4-dimethylaminophenyl)imidazo[1,2-a]pyrazin-6-yl]-N-(2-hydroxyethyl)benzamide] | 20 to 50% |
| CN(C)c1ccc(-c2cnc3cnc(-c4ccc(CO)cc4)cn23)cc1 [compound 287, [4-[3-(4-dimethylaminophenyl)imidazo[1,2-a]pyrazin-6-yl]phenyl]methanol] | 50 to 100% |
| COc1ccc(-c2cn3c(-c4ccc(N(C)C)cc4)cnc3cn2)cn1 [compound 288, 4-[6-(6-methoxy-3-pyridyl)imidazo[1,2-a]pyrazin-3-yl]-N,N-dimethyl-aniline] | 50 to 100% |
| CN(C)CCNC(=O)c1ccc(-c2cn3c(-c4ccc(N(C)C)cc4)cnc3cn2)cc1 [compound 289, N-(2-dimethylaminoethyl)-4-[3-(4-dimethylaminophenyl)imidazo[1,2-a]pyrazin-6-yl]benzamide] | 50 to 100% |
| CN(C)c1ccc(-c2cnc3cnc(-c4ccc(C(=O)NCCO)cc4)cn23)cc1 [compound 290, 4-[3-(4-dimethylaminophenyl)imidazo[1,2-a]pyrazin-6-yl]-N-(2-hydroxyethyl)benzamide] | 50 to 100% |
| CN(C)c1ccc(-c2cnc3cnc(-c4ccc(C(=O)N5CCOCC5)cc4)cn23)cc1 [compound 291, [4-[3-(4-dimethylaminophenyl)imidazo[1,2-a]pyrazin-6-yl]phenyl]-morpholino-methanone] | 20 to 50% |
| CN(C)c1ccc(-c2cnc3cnc(-c4cccc(C(N)=O)c4)cn23)cc1 [compound 292, 3-[3-(4-dimethylaminophenyl)imidazo[1,2-a]pyrazin-6-yl]benzamide] | 20 to 50% |
| CN(C)C(=O)c1cccc(-c2cn3c(-c4ccc(N(C)C)cc4)cnc3cn2)c1 [compound 293, 3-[3-(4-dimethylaminophenyl)imidazo[1,2-a]pyrazin-6-yl]-N,N-dimethyl-benzamide] | 20 to 50% |
| CN(C)c1ccc(-c2cnc3cnc(-c4ccccc4Cl)cn23)cc1 [compound 294, 4-[6-(2-chlorophenyl)imidazo[1,2-a]pyrazin-3-yl]-N,N-dimethyl-aniline] | 20 to 50% |
| CN(C)c1ccc(-c2cnc3cnc(-c4cccc(NS(C)(=O)=O)c4)cn23)cc1 [compound 295, N-[3-[3-(4-dimethylaminophenyl)imidazo[1,2-a]pyrazin-6-yl]phenyl]methanesulfonamide] | 20 to 50% |
| c1ccc(-c2cnc3cnc(-c4ccsc4)cn23)cc1 [compound 296, 3-phenyl-6-(3-thienyl)imidazo[1,2-a]pyrazine] | 20 to 50% |
| Fc1cccc(-c2cn3c(-c4ccccc4)cnc3cn2)c1 [compound 297, 6-(3-fluorophenyl)-3-phenyl-imidazo[1,2-a]pyrazine] | 20 to 50% |
| c1ccc(-c2cnc3cnc(-c4cccs4)cn23)cc1 [compound 298, 3-phenyl-6-(2-thienyl)imidazo[1,2-a]pyrazine] | 20 to 50% |
| O=C(NC1CC1)c1ccc(-c2cn3c(-c4ccccc4)cnc3cn2)cc1 [compound 299, N-cyclopropyl-4-(3-phenylimidazo[1,2-a]pyrazin-6-yl)benzamide] | 20 to 50% |
| c1ccc(-c2cn3c(-c4ccc5c(c4)OCO5)cnc3cn2)cc1 [compound 300, 3-(1,3-benzodioxol-5-yl)-6-phenyl-imidazo[1,2-a]pyrazine] | 50 to 100% |
| c1cc(-c2cn3c(-c4ccc5c(c4)OCO5)cnc3cn2)cs1 [compound 301, 3-(1,3-benzodioxol-5-yl)-6-(3-thienyl)imidazo[1,2-a]pyrazine] | 50 to 100% |
| CCOc1cccc(-c2cn3c(-c4ccc5c(c4)OCO5)cnc3cn2)c1 [compound 302, 3-(1,3-benzodioxol-5-yl)-6-(3-ethoxyphenyl)imidazo[1,2-a]pyrazine] | 50 to 100% |

| Structure (SMILES) | Emax |
| --- | --- |
| Clc1cccc(-c2cn3c(-c4ccc5c(c4)OCO5)cnc3cn2)c1 [compound 303, 3-(1,3-benzodioxol-5-yl)-6-(3-chlorophenyl)imidazo[1,2-a]pyrazine] | 50 to 100% |
| Fc1cccc(-c2cn3c(-c4ccc5c(c4)OCO5)cnc3cn2)c1 [compound 304, 3-(1,3-benzodioxol-5-yl)-6-(3-fluorophenyl)imidazo[1,2-a]pyrazine] | 50 to 100% |
| Cc1ccccc1-c1cn2c(-c3ccc4c(c3)OCO4)cnc2cn1 [compound 305, 3-(1,3-benzodioxol-5-yl)-6-(o-tolyl)imidazo[1,2-a]pyrazine] | 20 to 50% |
| c1csc(-c2cn3c(-c4ccc5c(c4)OCO5)cnc3cn2)c1 [compound 306, 3-(1,3-benzodioxol-5-yl)-6-(2-thienyl)imidazo[1,2-a]pyrazine] | 50 to 100% |
| c1ccc(Cn2cc(-c3cn4c(-c5ccc6c(c5)OCO6)cnc4cn3)cn2)cc1 [compound 307, 3-(1,3-benzodioxol-5-yl)-6-(1-benzylpyrazol-4-yl)imidazo[1,2-a]pyrazine] | 50 to 100% |
| COc1cc(OC)cc(-c2cn3c(-c4ccc5c(c4)OCO5)cnc3cn2)c1 [compound 308, 3-(1,3-benzodioxol-5-yl)-6-(3,5-dimethoxyphenyl)imidazo[1,2-a]pyrazine] | 50 to 100% |
| Nc1ccc(-c2cn3c(-c4ccc5c(c4)OCO5)cnc3cn2)cn1 [compound 309, 5-[3-(1,3-benzodioxol-5-yl)imidazo[1,2-a]pyrazin-6-yl]pyridin-2-amine] | 10 to 20% |
| CC(C)Oc1cccc(-c2cn3c(-c4ccc5c(c4)OCO5)cnc3cn2)c1 [compound 310, 3-(1,3-benzodioxol-5-yl)-6-(3-isopropoxyphenyl)imidazo[1,2-a]pyrazine] | 50 to 100% |
| c1ccc(Oc2ccccc2-c2cn3c(-c4ccncc4)cnc3cn2)cc1 [compound 311, 6-(2-phenoxyphenyl)-3-(4-pyridyl)imidazo[1,2-a]pyrazine] | 20 to 50% |
| Cc1cc(-c2cn3c(-c4ccncc4)cnc3cn2)cc(C)c1O [compound 312, 2,6-dimethyl-4-[3-(4-pyridyl)imidazo[1,2-a]pyrazin-6-yl]phenol] | 20 to 50% |
| c1csc(-c2cn3c(-c4ccncc4)cnc3cn2)c1 [compound 314, 3-(4-pyridyl)-6-(2-thienyl)imidazo[1,2-a]pyrazine] | 20 to 50% |
| c1cncc(-c2cnc3cnc(-c4ccc(N5CCOCC5)cc4)cn23)c1 [compound 315, 4-[4-[3-(3-pyridyl)imidazo[1,2-a]pyrazin-6-yl]phenyl]morpholine] | 20 to 50% |
| c1cncc(-c2cnc3cnc(-c4cc5ccccc5s4)cn23)c1 [compound 316, 6-(benzothiophen-2-yl)-3-(3-pyridyl)imidazo[1,2-a]pyrazine] | 20 to 50% |
| CSc1ccc(-c2cn3c(-c4cccnc4)cnc3cn2)cc1 [compound 317, 6-(4-methylsulfanylphenyl)-3-(3-pyridyl)imidazo[1,2-a]pyrazine] | 20 to 50% |
| CS(=O)(=O)Nc1cccc(-c2cn3c(-c4cccnc4)cnc3cn2)c1 [compound 318, N-[3-[3-(3-pyridyl)imidazo[1,2-a]pyrazin-6-yl]phenyl]methanesulfonamide] | 20 to 50% |
| c1coc(-c2cn3c(-c4ccsc4)cnc3cn2)c1 [compound 319, 6-(2-furyl)-3-(3-thienyl)imidazo[1,2-a]pyrazine] | 20 to 50% |
| Fc1ccc(-c2cn3c(-c4ccsc4)cnc3cn2)cc1Cl [compound 320, 6-(3-chloro-4-fluoro-phenyl)-3-(3-thienyl)imidazo[1,2-a]pyrazine] | 20 to 50% |
| O=C(NCCO)c1ccc(-c2cn3c(-c4ccsc4)cnc3cn2)cc1 [compound 321, N-(2-hydroxyethyl)-4-[3-(3-thienyl)imidazo[1,2-a]pyrazin-6-yl]benzamide] | 10 to 20% |
| c1csc(-c2cn3c(-c4ccsc4)cnc3cn2)c1 [compound 322, 6-(2-thienyl)-3-(3-thienyl)imidazo[1,2-a]pyrazine] | 50 to 100% |
| COc1cc(OC)cc(-c2cn3c(-c4ccsc4)cnc3cn2)c1 [compound 323, 6-(3,5-dimethoxyphenyl)-3-(3-thienyl)imidazo[1,2-a]pyrazine] | 20 to 50% |
| Oc1ccc(-c2cnc3cnc(-c4ccc(Cl)cc4)cn23)cc1 [compound 324, 4-[6-(4-chlorophenyl)imidazo[1,2-a]pyrazin-3-yl]phenol] | 20 to 50% |
| CC(C)N1CCN(c2ccc(-c3cn4c(-c5ccc(O)cc5)cnc4cn3)cc2)CC1 [compound 325, 4-[6-[4-(4-isopropylpiperazin-1-yl)phenyl]imidazo[1,2-a]pyrazin-3-yl]phenol] | 20 to 50% |
| O=C(NC1CC1)c1ccc(-c2cn3c(-c4ccc(O)cc4)cnc3cn2)cc1 [compound 326, N-cyclopropyl-4-[3-(4-hydroxyphenyl)imidazo[1,2-a]pyrazin-6-yl]benzamide] | 20 to 50% |
